Laboratory results as given in US9408393B2, “Bismuth-thiols as antiseptics for agricultural, industrial and other uses” (Microbion Corporation, priority 2010, dated 2016).

Key:
[1] = test system: H. marina; test: MIC against marine bacteria; format: cell-based; conditions: marine bacterium H. marina
Description: (§1) This example describes the antimicrobial activity of bismuth containing compounds. The MIC values of three bismuth containing compounds, bismuth dimercaprol (BisBAL), bismuth dimercaptotoluene (BisTOL), and bismuth ethanedithiol (BisEDT), against three different marine bacteria were determined using methods routinely practiced by persons skilled in the art.

[2] = test system: V. alginolyticus; test: MIC against marine bacteria; format: cell-based; conditions: marine bacterium V. alginolyticus
Description: as §1

[3] = test system: M. hydrocarbonoclasicus; test: MIC against marine bacteria; format: cell-based; conditions: marine bacterium M. hydrocarbonoclasicus
Description: as §1

[4] = test system: barnacle larvae; test: Barnacle larvae settlement inhibition
Description: Compounds, BisBAL and BisTOL were included in an assay to determine the inhibitory activity of each compound on barnacle larvae settlement behavior. Methods were performed according to techniques practiced in the art. […] In another experiment, BisEDT was dissolved either directly in natural seawater or first dissolved in DMSO and then diluted in natural seawater. The EC50 measurements were not statistically different.

[5] = test system: marine diatom; test: Marine diatom settlement inhibition; conditions: 0.1 μg/ml
Description: The effect of three bismuth containing compounds, bismuth dimercaprol (BisBAL), bismuth dimercaptotoluene (BisTOL), and bismuth ethanedithiol (BisEDT), on growth of a marine diatom was determined according to techniques practiced in the art. Settlement of marine diatoms (diatoms per fov) was inhibited by increasing concentrations of each of the three compounds (0.001, 0.01, 0.1, 1.0, and 10.0 μg/ml). […] 1987; 41:435-64; Domenico et al., Antimicrob Agents and Chemother. 2001; 45(5):1417-21; Halwani et al., Int J Pharm. 2008; 358:278-84; Johnson et al., Clin Infect Dis. 2007; 45(4):409-415. ADA Council on Scientific Affairs. Direct and indirect restorative materials. JADA 2003; 134:463-72. Alliance for Coastal Technologies (ACT). 2004. Biofouling Prevention Technologies for Coastal Sensors/Sensor Platforms. University of Maryland Center of Environmental Science, Workshop Proceedings, November 2003. UMCES Technical Report Series No. TS-426-04-CBL, Solomons, M D. Athanassiadis et al., Aust Dent J 2007; 52:S64-82. Alt et al., Antimicrob Agents Chemother 2004; 48:4084-88. Bayston et al., Biomaterials 2009; 30:3167-73. Bernardo et al., JADA 2007; 138:775-783. Beytha et al., J Dent 2007; 35:201-206. Bohner et al., J Pharm Sci 1997; 86:565-72. Bruxton, Eng News 1908; 59,525; Chem. Abs., 2:2010. Bueno et al. Oral Surg Oral Med Oral Pathol Oral Radiol Endod 2009; 107:e65-9. […]

[6] = test system: Enteromorpha spores; test: Inhibition of algae spore germination; conditions: up to ten micrograms per ml
Description: The effect of three bismuth containing compounds, bismuth dimercaprol (BisBAL), bismuth dimercaptotoluene (BisTOL), and bismuth ethanedithiol (BisEDT), on the settlement of algae was determined, particularly the ability of each compound to inhibit germination of Enteromorpha spores. Each compound was tested at 0.001, 0.01, 0.1, 1.0, and 10.0 μg/ml.

bismuth dimercaptotoluene [BisTOL]
MIC [1]: 7.2 µg/mL
MIC [2]: 1 µg/mL
MIC [3]: 0.4 µg/mL
EC50 (concentration at which 50% settlement inhibition occurs) [4]: 15.4 ppm
Inhibition of marine diatom settlement [5]: approximately 30%
Effect on germination of algae spores [6]: no inhibitory effect
